Results published in patent publication US11840686B2, “Modulation of prekallikrein (PKK) expression” (Ionis Pharmaceuticals, Inc., priority 2013, dated 2023).
Strand notation (5' to 3'): a small letter for the sugar, then the base; units joined by * are phosphorothioate-linked, units joined directly phosphodiester-linked; [ ] holds rarer units or linkages, { } end groups; capitals alone tell only the bases. e = 2'-O-(2-methoxyethyl) (MOE); k = constrained ethyl (cEt); [5mC] = 5-methylcytosine; d = 2'-deoxy (DNA)

What follows are substances tested on human PKK mRNA (assay: Antisense inhibition of human PKK mRNA in HepaRG cells, 1,000 nM, MOE/deoxy/cEt oligonucleotides (Example 3)). Conditions: Table 30; human PKK mRNA, HepaRG cells, 1,000 nM antisense oligonucleotide.
Type: cell-based
Method in brief: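 Readout is percent PKK mRNA reduction against untreated controls, by real-time PCR (RTS3454) adjusted for total RNA via RIBOGREEN. Oligonucleotides, phosphorothioate gapmers of 16 nucleosides with cEt, MOE and deoxy sugars, were delivered at 1,000 nM by electroporation to 20,000 HepaRG cells/well for roughly 24 h.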

Substance	% inhibition [%]
548386 (eA*eG*k[5mC]*d[5mC]*d[5mC]*dT*dG*dT*dT*dT*dG*dG*dT*kT*kT*eT; antisense) [compound 548386]	0
548387 (eT*eG*kA*dA*dG*dG*dG*d[5mC]*dG*dA*dG*dG*d[5mC]*kG*k[5mC]*eA; antisense) [compound 548387]	22
548388 (eA*eA*kG*dA*dG*dG*dA*dT*dG*dT*d[5mC]*dA*dG*kG*k[5mC]*eT; antisense) [compound 548388]	4
548389 (eT*eT*kG*dA*dG*dG*dA*dA*dA*dG*dA*d[5mC]*d[5mC]*kT*kG*e[5mC]; antisense) [compound 548389]	11
548390 (eG*e[5mC]*kT*dG*dA*dG*dT*dG*dT*dG*dA*d[5mC]*dT*kT*kA*eA; antisense) [compound 548390]	43
548391 (eG*eT*kA*d[5mC]*dA*dT*dG*dA*d[5mC]*dT*d[5mC]*d[5mC]*dA*kG*kT*eG; antisense) [compound 548391]	34
548392 (eG*eT*kA*dG*dA*dG*d[5mC]*dA*dT*dG*dG*dA*dG*k[5mC]*kG*eA; antisense) [compound 548392]	31
548393 (e[5mC]*eG*k[5mC]*dT*dT*d[5mC]*dA*dG*dG*dA*dA*dA*dG*k[5mC]*kG*eA; antisense) [compound 548393]	26
548394 (eG*eG*k[5mC]*dA*dG*dG*dA*dG*dA*d[5mC]*dT*d[5mC]*d[5mC]*kG*kT*eG; antisense) [compound 548394]	25
548395 (eA*eT*k[5mC]*d[5mC]*dT*dT*d[5mC]*d[5mC]*d[5mC]*d[5mC]*dT*d[5mC]*dG*k[5mC]*kA*eA; antisense) [compound 548395]	0
548396 (eT*eA*kA*dT*dG*dA*dG*dT*dG*dG*dG*dT*dT*kA*kG*eG; antisense) [compound 548396]	0
548397 (eG*eG*kA*dG*d[5mC]*dA*dG*dT*dG*d[5mC]*dA*dG*dG*kT*kA*eA; antisense) [compound 548397]	1
548398 (eA*eT*kA*dG*dG*d[5mC]*dA*dA*dT*dT*dG*dT*dT*k[5mC]*k[5mC]*eT; antisense) [compound 548398]	55
548399 (eA*eG*kT*d[5mC]*d[5mC]*dT*dA*d[5mC]*dA*dA*dT*dT*dA*k[5mC]*k[5mC]*eA; antisense) [compound 548399]	11
548400 (eG*eG*kG*d[5mC]*dT*d[5mC]*d[5mC]*dT*dA*dT*dT*d[5mC]*d[5mC]*kA*k[5mC]*e[5mC]; antisense) [compound 548400]	13
548401 (eG*e[5mC]*k[5mC]*dA*dG*d[5mC]*dT*dA*dT*dG*dG*dG*dA*kA*k[5mC]*eA; antisense) [compound 548401]	71
548402 (e[5mC]*e[5mC]*k[5mC]*d[5mC]*dA*dT*d[5mC]*dT*d[5mC]*dG*dA*dA*dG*k[5mC]*k[5mC]*e[5mC]; antisense) [compound 548402]	45
548403 (eG*eA*kG*dT*dA*d[5mC]*dA*dT*dT*dG*dG*dG*d[5mC]*k[5mC]*k[5mC]*eA; antisense) [compound 548403]	25
548404 (eG*eA*kG*d[5mC]*d[5mC]*dT*dT*d[5mC]*d[5mC]*dG*d[5mC]*d[5mC]*dT*k[5mC]*kT*e[5mC]; antisense) [compound 548404]	37
548405 (e[5mC]*eG*kG*dA*d[5mC]*d[5mC]*dT*dT*d[5mC]*dA*dT*d[5mC]*dT*kT*k[5mC]*eA; antisense) [compound 548405]	35
548406 (eT*e[5mC]*kT*dA*dG*dA*dG*dG*d[5mC]*d[5mC]*dG*d[5mC]*d[5mC]*kT*kG*e[5mC]; antisense) [compound 548406]	0
548407 (e[5mC]*e[5mC]*kT*dA*dT*dA*dA*d[5mC]*dT*dG*d[5mC]*dT*dG*k[5mC]*kT*e[5mC]; antisense) [compound 548407]	24
548408 (antisense eT*eA*kT*d[5mC]*dA*d[5mC]*dT*dG*dT*dA*d[5mC]*dT*dA*kG*kT*eT) [compound 548408]	47
548411 (antisense e[5mC]*eA*kG*dT*dA*dT*d[5mC]*dA*d[5mC]*dT*dG*dT*dA*k[5mC]*kT*eA) [compound 548411]	72
548412 (antisense eT*eA*kA*d[5mC]*dA*dG*dT*dA*dT*d[5mC]*dA*d[5mC]*dT*kG*kT*eA) [compound 548412]	17
548413 (antisense e[5mC]*eT*kA*dA*d[5mC]*dA*dG*dT*dA*dT*d[5mC]*dA*d[5mC]*kT*kG*eT) [compound 548413]	55

Substance	% inhibition [%]
548414 (antisense eT*e[5mC]*kT*dA*dA*d[5mC]*dA*dG*dT*dA*dT*d[5mC]*dA*k[5mC]*kT*eG) [compound 548414]	20
548415 (antisense eA*eT*kA*dA*d[5mC]*dT*d[5mC]*dT*dA*dA*d[5mC]*dA*dG*kT*kA*eT) [compound 548415]	0
548416 (antisense e[5mC]*eT*kA*dT*dA*dA*d[5mC]*dT*d[5mC]*dT*dA*dA*d[5mC]*kA*kG*eT) [compound 548416]	9
548417 (antisense eA*e[5mC]*kT*dG*dT*d[5mC]*d[5mC]*dT*dA*dT*dA*dA*d[5mC]*kT*k[5mC]*eT) [compound 548417]	24
548418 (antisense eT*eA*kT*dA*dT*d[5mC]*dA*d[5mC]*dT*dG*dT*d[5mC]*d[5mC]*kT*kA*eT) [compound 548418]	39
548419 (antisense e[5mC]*e[5mC]*kT*dA*dT*dA*dT*d[5mC]*dA*d[5mC]*dT*dG*dT*k[5mC]*k[5mC]*eT) [compound 548419]	52
548420 (antisense eT*e[5mC]*k[5mC]*dT*dA*dT*dA*dT*d[5mC]*dA*d[5mC]*dT*dG*kT*k[5mC]*e[5mC]) [compound 548420]	58
548421 (antisense e[5mC]*eA*k[5mC]*dT*dG*dT*d[5mC]*d[5mC]*dT*dA*dT*dA*dT*k[5mC]*kA*e[5mC]) [compound 548421]	56
548423 (antisense eA*eG*kT*dA*dT*d[5mC]*dA*d[5mC]*dT*dG*dT*d[5mC]*d[5mC]*kT*kA*eT) [compound 548423]	72
548426 (antisense eT*eA*kT*dA*dA*d[5mC]*dA*dG*dT*dA*dT*d[5mC]*dA*k[5mC]*kT*eG) [compound 548426]	14
548427 (antisense e[5mC]*eT*kA*dT*dA*dA*d[5mC]*dA*dG*dT*dA*dT*d[5mC]*kA*k[5mC]*eT) [compound 548427]	24
548428 (antisense eT*eA*kA*d[5mC]*dT*dA*dT*dA*dA*d[5mC]*dA*dG*dT*kA*kT*e[5mC]) [compound 548428]	0
548429 (antisense eT*eA*kT*dA*dA*d[5mC]*dT*dA*dT*dA*dA*d[5mC]*dA*kG*kT*eA) [compound 548429]	0
548430 (antisense e[5mC]*e[5mC]*kT*dA*dT*dA*dA*d[5mC]*dT*dA*dT*dA*dA*k[5mC]*kA*eG) [compound 548430]	21
548431 (antisense eT*eA*k[5mC]*d[5mC]*dT*dA*dT*dA*dA*d[5mC]*dT*d[5mC]*dT*kA*kA*e[5mC]) [compound 548431]	9
548432 (antisense eA*e[5mC]*kT*dG*dT*dA*d[5mC]*d[5mC]*dT*dA*dT*dA*dA*k[5mC]*kT*e[5mC]) [compound 548432]	43
548433 (antisense eT*eA*kT*d[5mC]*dA*d[5mC]*dT*dG*dT*dA*d[5mC]*d[5mC]*dT*kA*kT*eA) [compound 548433]	33
548434 (antisense eA*e[5mC]*kA*dA*dT*dA*dT*d[5mC]*dA*d[5mC]*dT*dG*dT*kA*k[5mC]*e[5mC]) [compound 548434]	63
548435 (antisense eA*eA*k[5mC]*dA*dA*dT*dA*dT*d[5mC]*dA*d[5mC]*dT*dG*kT*kA*e[5mC]) [compound 548435]	19
548436 (antisense eA*eT*kA*dT*d[5mC]*dA*d[5mC]*dT*dG*dT*dA*d[5mC]*d[5mC]*kT*kG*eT) [compound 548436]	8
548437 (antisense eT*eA*kT*dA*dT*d[5mC]*dA*d[5mC]*dT*dG*dT*dA*d[5mC]*k[5mC]*kT*eG) [compound 548437]	74
548438 (antisense e[5mC]*eT*kA*dT*dA*dT*d[5mC]*dA*d[5mC]*dT*dG*dT*dA*k[5mC]*k[5mC]*eT) [compound 548438]	38
548439 (antisense e[5mC]*e[5mC]*kT*dA*dT*dA*dT*d[5mC]*dA*d[5mC]*dT*dG*dT*kA*k[5mC]*e[5mC]) [compound 548439]	46
548440 (antisense e[5mC]*e[5mC]*kT*dA*dT*dA*dA*d[5mC]*dA*dG*dT*dA*dT*k[5mC]*kA*e[5mC]) [compound 548440]	32
548441 (antisense eT*e[5mC]*k[5mC]*dT*dA*dT*dA*dA*d[5mC]*dA*dG*dT*dA*kT*k[5mC]*eA) [compound 548441]	42
